Laboratory results from patent US20230219969A1 (priority 2020, published 2023).

Tested on: Rat cortical neurons
Experiment: Neurite Outgrowth in Primary Neuronal Cultures Assay (Procedure B)
Assay type: cell-based
Design: key: A: Statistically significant mean increase as a percent of DMSO control at 10 μM or less; B: No statistically significant mean increase as a percent of DMSO control at 10 μM or less
Conditions: 72 h, percent of DMSO control at 10 μM or less
From the text: Neurite Outgrowth in Primary Neuronal Cultures Assay (Procedure B). Changes in the pattern of neurite outgrowth have been implicated in psychiatric and neurodegenerative disorders as well as traumatic injuries. The discovery of new compounds that can positively affect neuritogenesis are important for developing new therapeutics for neurological diseases. Measurement of neurite outgrowth of rat cortical neurons using an automated image-based assay was used to determine the neuroplastic effects of the compounds of the present invention. The neurite outgrowth assay was performed at Neurofit SAS (France) as described below.
Pregnant Wistar rats (Janvier; France) were used for the study. They were delivered 6 days before their use. Upon arrival at Neurofit animal facility, they were housed one per cage and maintained in a room with controlled temperature (21-22° C.) and a reversed light-dark cycle (12 h/12 h; lights on: 17:30-05:30; lights off: 05:30-17:30) with food and water available ad libitum.
Female Wistar rats of 17 days gestation were killed by cervical dislocation and the fetuses were removed from the uterus. Their brains were placed in ice-cold medium of Leibovitz (L15, Gibco, Fisher bioblock, France). Cortices were dissected and meninges were carefully removed. The cortical neurons were dissociated by trypsinization for 30 min at 37° C. (trypsin-EDTA, Gibco) in presence of 0.1 mg/ml DNAse I (Roche, France). The reaction was stopped by addition of Dulbecco's Modified Eagle Medium (DMEM; Gibco) with 10% of fetal bovine serum (FBS; Gibco). The suspension was triturated with a 10-ml pipette and using a needle syringe 21G and centrifuged at 350×g for 10 min at room temperature. The pellet of dissociated cells was resuspended in a medium consisting of Neurobasal (Gibco) supplemented with 2% B27 supplement (Gibco), 0.5 mM L-Glutamine (Gibco), an antibiotic-antimicotic mixture. Viable cells were counted in a Neubauer cytometer using the trypan blue exclusion test (Sigma). Cells were seeded at a density of 10000 cells per well in 96-well plate (Costar) precoated with poly-L-lysine. Test compound at different concentrations were added to the cultures. Donepezil (positive control) was tested at 250 nM.
After 72 h (3 days) of plating, cultures were fixed with paraformaldehyde in PBS (4%, Sigma) for 30 min at 4° C. Then, cells were successively permeabilized with 0.1% Triton X100 for 30 min, saturated with PBS containing 3% of BSA and were incubated 1 h with anti-beta III tubulin antibody (Sigma) at 1/10 000 in PBS containing 0.5% of BSA. Cells were washed three times with PBS containing 0.5% of BSA, and they were incubated 1 h with goat anti-mouse antibody coupled with AF488 (Invitrogen A11001) diluted at 1/1000 in PBS containing 0.5% of BSA. Finally, nuclei were staining with DAPI 1 mg/ml at 1/1000 in PBS containing 0.5% of BSA. After rinsing with PBS, the plate was filmed and neurite networks were examined and analyzed using High-Content Screening (CellInsight, Thermo Scientific). The average number of neurites per neuron and the average total length of neurites per neuron were the main parameters analyzed. Analysis of data was performed using analysis of variance (ANOVA). The Fisher's Protected Least Significant Difference test was used for multiple comparisons. A p value<0.05 was considered significant. The software used is StatView 5.0 from SAS Institut.
In some embodiments, a compound of the present invention increases the pattern of neurite outgrowth. In some embodiments, a compound of the present invention increases neurite average length compared to a control. In some embodiments, a compound of the present invention increases neurite branch points compared to a control.

Structure (SMILES) | Increase in Neurite Length | Increase in Neurite Number
COc1ccc2c(ccn2C(=O)CN(C)C)c1 [Example 45, 2-(dimethylamino)-1-(5-methoxy-1H-indol-1-yl)ethan-1-one] | B | B
COc1cc2ccn(C[C@@H](C)N)c2cn1 [Example 31, (R)-1-(5-methoxy-1H-pyrrolo[2,3-c]pyridin-1-yl)propan-2-amine] | B | B
COc1ccc2c(ccn2C[C@@H](C)N(C)C)n1 [Example 30, (R)-1-(5-methoxy-1H-pyrrolo[3,2-b]pyridin-1-yl)-N,N-dimethylpropan-2-amine] | A | A
COc1ccc2c(ccn2C(=O)[C@@H](C)N(C)C)c1 [Example 47, (R)-2-(dimethylamino)-1-(5-methoxy-1H-indol-1-yl)propan-1-one] | B | B
COc1ccc2c(ccn2CC2(N(C)C)CC2)c1 [Example 2, 1-((5-methoxy-1H-indol-1-yl)methyl)-N,N-dimethylcyclopropan-1-amine] | B | B
C[C@H](Cn1ccc2cnccc21)N(C)C [Example 39, (R)—N,N-dimethyl-1-(1H-pyrrolo[3,2-c]pyridin-1-yl)propan-2-amine] | B | B
COc1ccc2c(ccn2[C@H]2C[C@@H](N(C)C)C2)c1 [Example 24, (1s,3s)-3-(5-methoxy-1H-indol-1-yl)-N,N-dimethylcyclobutan-1-amine] | A | B
CN[C@H](C)Cn1ccc2nc(OC)ccc21 [Example 29, (R)-1-(5-methoxy-1H-pyrrolo[3,2-b]pyridin-1-yl)-N-methylpropan-2-amine] | A | B
COc1ccc2c(ccn2[C@H]2C[C@H](N(C)C)C2)c1 [Example 25, (1r,3r)-3-(5-methoxy-1H-indol-1-yl)-N,N-dimethylcyclobutan-1-amine] | A | B
CN[C@H](C)Cn1ccc2cc(OC)ncc21 [Example 32, (R)-1-(5-methoxy-1H-pyrrolo[2,3-c]pyridin-1-yl)-N-methylpropan-2-amine] | B | B
COc1ccc2c(ccn2CC(C)(C)N(C)C)c1 [Example 1, 1-(5-methoxy-1H-indol-1-yl)-N,N,2-trimethylpropan-2-amine] | A | A
COc1cc2ccn(C[C@@H](C)N(C)C)c2cn1 [Example 33, (R)-1-(5-methoxy-1H-pyrrolo[2,3-c]pyridin-1-yl)-N,N-dimethylpropan-2-amine] | A | B

Molecular target: T1, 5HT2A (Homo sapiens, UniProt P28223)
T1 sequence (P28223 whole entry): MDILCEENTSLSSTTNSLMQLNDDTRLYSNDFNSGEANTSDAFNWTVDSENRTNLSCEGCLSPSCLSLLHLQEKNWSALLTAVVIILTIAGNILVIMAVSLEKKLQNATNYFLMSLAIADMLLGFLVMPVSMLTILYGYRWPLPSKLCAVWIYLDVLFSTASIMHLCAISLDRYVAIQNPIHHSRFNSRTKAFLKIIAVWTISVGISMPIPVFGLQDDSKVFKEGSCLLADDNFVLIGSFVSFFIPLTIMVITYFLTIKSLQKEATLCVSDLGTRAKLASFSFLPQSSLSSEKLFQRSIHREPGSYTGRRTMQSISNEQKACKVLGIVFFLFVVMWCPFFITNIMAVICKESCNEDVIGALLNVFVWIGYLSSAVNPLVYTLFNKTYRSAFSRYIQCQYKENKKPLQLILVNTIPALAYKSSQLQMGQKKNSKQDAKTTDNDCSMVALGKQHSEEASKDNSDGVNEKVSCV
Experiment: Serotonin 5-HT2A in vitro cellular IPOne agonism assay
Assay type: cell-based
Design: host or cells: CHO-K1
Conditions: not given
Experimental: Serotonin 5-HT2A In Vitro Cellular IPOne Agonism Assay. The 5-HT2A IPOne HTRF assay was performed at Epics Therapeutics S.A. (Belgium, FAST-0505I) using conventional methods. Briefly, CHO-K1 cells expressing human recombinant 5-HT2A receptor grown to mid-log phase in culture media without antibiotics were detached with PBS-EDTA, centrifuged, and resuspended in medium without antibiotics buffer. 20,000 cells are distributed in a 96 well plate and incubated overnight at 37° C. with 5% CO2.
For agonist testing, the medium is removed and 20 μl of assay buffer plus 20 μl of test compound or reference agonist are added in each well. The plate is incubated for 60 min. at 37° C. with 5% CO2.
After addition of the lysis buffer containing IP1-d2 and anti-IP1 cryptate detection reagents, plates are incubated 1-hour at room temperature, and fluorescence ratios are measured according to the manufacturer specification, with the HTRF kit.
(§1) The compounds provided herein were tested in the Serotonin 5-HT2A and 5-HT2C in vitro radioligand binding and cellular IPOne agonism assays. The binding and agonism functional potencies of several compound provided herein compounds (as indicated by their IC50s or EC50s) are shown in Table 11.

Structure (SMILES) | EC50 [µM]
COc1ccc2c(ccn2C(=O)[C@@H](C)N(C)C)c1 [Example 47, (R)-2-(dimethylamino)-1-(5-methoxy-1H-indol-1-yl)propan-1-one] | > 10

Same assay, conditions: CHO-K1 cells, IPOne HTRF; read-out: 5-HT2A IPOne Agonism Activity

Structure (SMILES) | EC50 [µM]
COc1ccc2c(ccn2C(=O)CN(C)C)c1 [Example 45, 2-(dimethylamino)-1-(5-methoxy-1H-indol-1-yl)ethan-1-one] | > 10
COc1cc2ccn(C[C@@H](C)N)c2cn1 [Example 31, (R)-1-(5-methoxy-1H-pyrrolo[2,3-c]pyridin-1-yl)propan-2-amine] | 1 to 10
COc1ccc2c(ccn2C[C@@H](C)N(C)C)n1 [Example 30, (R)-1-(5-methoxy-1H-pyrrolo[3,2-b]pyridin-1-yl)-N,N-dimethylpropan-2-amine] | > 10
COc1ccc2c(ccn2CC2(N(C)C)CC2)c1 [Example 2, 1-((5-methoxy-1H-indol-1-yl)methyl)-N,N-dimethylcyclopropan-1-amine] | > 10
C[C@H](Cn1ccc2cnccc21)N(C)C [Example 39, (R)—N,N-dimethyl-1-(1H-pyrrolo[3,2-c]pyridin-1-yl)propan-2-amine] | > 10
COc1ccc2c(ccn2[C@H]2C[C@@H](N(C)C)C2)c1 [Example 24, (1s,3s)-3-(5-methoxy-1H-indol-1-yl)-N,N-dimethylcyclobutan-1-amine] | > 10
CN[C@H](C)Cn1ccc2nc(OC)ccc21 [Example 29, (R)-1-(5-methoxy-1H-pyrrolo[3,2-b]pyridin-1-yl)-N-methylpropan-2-amine] | > 10
COc1ccc2c(ccn2[C@H]2C[C@H](N(C)C)C2)c1 [Example 25, (1r,3r)-3-(5-methoxy-1H-indol-1-yl)-N,N-dimethylcyclobutan-1-amine] | > 10
CN[C@H](C)Cn1ccc2cc(OC)ncc21 [Example 32, (R)-1-(5-methoxy-1H-pyrrolo[2,3-c]pyridin-1-yl)-N-methylpropan-2-amine] | > 10
COc1ccc2c(ccn2CC(C)(C)N(C)C)c1 [Example 1, 1-(5-methoxy-1H-indol-1-yl)-N,N,2-trimethylpropan-2-amine] | > 10
COc1cc2ccn(C[C@@H](C)N(C)C)c2cn1 [Example 33, (R)-1-(5-methoxy-1H-pyrrolo[2,3-c]pyridin-1-yl)-N,N-dimethylpropan-2-amine] | > 10

Molecular target: T1, 5HT2A
Experiment: Serotonin 5-HT2A in vitro radioligand binding competition assay ([3H]-DOI)
Design: purchased Epics Therapeutics S.A. (Belgium) FAST-0505B
Conditions: not given
Experimental: Serotonin 5-HT2A In Vitro Radioligand Binding Competition Assay. The 5-HT2A radioligand binding competition assay was performed at Epics Therapeutics S.A. (Belgium, FAST-0505B) using conventional methods. Briefly, competition binding is performed in duplicate in the wells of a 96 well plate (Master Block, Greiner, 786201) containing binding buffer (optimized for each receptor), membrane extracts (amount of protein/well optimized for each receptor), radiotracer [^3H]-DOI (final concentration optimized for each receptor) and test compound. Nonspecific binding is determined by co-incubation with 200-fold excess of cold competitor. The samples are incubated in a final volume of 0.1 ml at a temperature and for a duration optimized for each receptor and then filtered over filter plates. Filters are washed six times with 0.5 ml of ice-cold washing buffer (optimized for each receptor) and 50 μl of Microscint 20 (Packard) are added in each well. The plates are incubated 15 min on an orbital shaker and then counted with a TopCount™ for 1 min/well.
as §1

Structure (SMILES) | IC50 [µM]
COc1ccc2c(ccn2C(=O)[C@@H](C)N(C)C)c1 [Example 47, (R)-2-(dimethylamino)-1-(5-methoxy-1H-indol-1-yl)propan-1-one] | > 10

Same assay, conditions: [3H]-DOI competition, membrane extracts; read-out: 5-HT2A Radioligand Binding Activity

Structure (SMILES) | IC50 [µM]
COc1ccc2c(ccn2C(=O)CN(C)C)c1 [Example 45, 2-(dimethylamino)-1-(5-methoxy-1H-indol-1-yl)ethan-1-one] | > 10
COc1cc2ccn(C[C@@H](C)N)c2cn1 [Example 31, (R)-1-(5-methoxy-1H-pyrrolo[2,3-c]pyridin-1-yl)propan-2-amine] | 1 to 10
COc1ccc2c(ccn2C[C@@H](C)N(C)C)n1 [Example 30, (R)-1-(5-methoxy-1H-pyrrolo[3,2-b]pyridin-1-yl)-N,N-dimethylpropan-2-amine] | > 10
COc1ccc2c(ccn2CC2(N(C)C)CC2)c1 [Example 2, 1-((5-methoxy-1H-indol-1-yl)methyl)-N,N-dimethylcyclopropan-1-amine] | > 10
C[C@H](Cn1ccc2cnccc21)N(C)C [Example 39, (R)—N,N-dimethyl-1-(1H-pyrrolo[3,2-c]pyridin-1-yl)propan-2-amine] | > 10
COc1ccc2c(ccn2[C@H]2C[C@@H](N(C)C)C2)c1 [Example 24, (1s,3s)-3-(5-methoxy-1H-indol-1-yl)-N,N-dimethylcyclobutan-1-amine] | > 10
CN[C@H](C)Cn1ccc2nc(OC)ccc21 [Example 29, (R)-1-(5-methoxy-1H-pyrrolo[3,2-b]pyridin-1-yl)-N-methylpropan-2-amine] | > 10
COc1ccc2c(ccn2[C@H]2C[C@H](N(C)C)C2)c1 [Example 25, (1r,3r)-3-(5-methoxy-1H-indol-1-yl)-N,N-dimethylcyclobutan-1-amine] | > 10
CN[C@H](C)Cn1ccc2cc(OC)ncc21 [Example 32, (R)-1-(5-methoxy-1H-pyrrolo[2,3-c]pyridin-1-yl)-N-methylpropan-2-amine] | > 10
COc1ccc2c(ccn2CC(C)(C)N(C)C)c1 [Example 1, 1-(5-methoxy-1H-indol-1-yl)-N,N,2-trimethylpropan-2-amine] | > 10
COc1cc2ccn(C[C@@H](C)N(C)C)c2cn1 [Example 33, (R)-1-(5-methoxy-1H-pyrrolo[2,3-c]pyridin-1-yl)-N,N-dimethylpropan-2-amine] | > 10
